kinact, Ki and K inact data for 7 compounds are collected here from ChEMBL document CHEMBL1123301, “Structure-activity study of 6-substituted 2-pyranones as inactivators of alpha-chymotrypsin” (J Med Chem, 1986).

For assay [1], the target named is Chymotrypsinogen A (Bos taurus) (UniProt P00766).
Assay [2] has the same target. The assay is described as follows: Binding affinity towards alpha-chymotrypsin from bovine pancreas; The compound was too insoluble to obtain reliable data.
For assay [3] the target is unchanged. This is another data set of the same source.
Assay [4] has the same target. This is another data set of the same source.
A short description of assay [5]: Binding affinity towards alpha-chymotrypsin from bovine pancreas. Details: species or system Bos taurus.

pKi: −log10 of the molar value.

On to `O=c1oc(Br)ccc1Cc1ccc2ccccc2c1`, for which the kinact in assay [1] is 0.0239 min⁻¹. For the same compound, in assay [2], the Ki entry was “The compound was too insoluble to obtain reliable data”. As to `CCc1ccc(=O)oc1Cl`, the K inact in assay [3] amounted to 0.00551 min⁻¹. The same measure, in the same setting: the same measure for `CCCCc1ccc(=O)oc1Cl`: 0.00217 min⁻¹. Take `O=c1ccc(-c2ccccc2)co1`: the K inact result in assay [4] was “No inactivation”. The same measure, in the same setting: the same measure for `O=c1ccc(-c2ccccc2)c(Cl)o1`: “No inactivation”. Take `O=c1occcc1-c1ccccc1`: the K inact entry in assay [4] was “No inactivation”. The compound also gave a pKi in assay [5] of 3.80. Regarding `O=c1oc(Cl)ccc1-c1ccccc1`, the K inact result in assay [4] is “No inactivation”.

Broadly, the kinact is the rate constant of inactivation at saturating inhibitor. The pKi is the Ki on a negative log10 scale, so that one unit is a factor of ten.
